Biological target: T1, EfrEF (Enterococcus faecalis, UniProt Q832J9+Q832K0)
T1 construct: gene EF_2226; heterodimeric ABC exporter, expressed in Lactococcus lactis NZ9000 from pNZ8048NH3, purified in DDM, reconstituted in proteoliposomes
Experiment: ATPase stimulation in proteoliposomes; also ethidium efflux from L. lactis cells
Type: biochemical
Settings: 1 mM ATP, 10 mM MgSO4, 50 mM HEPES pH 7.0, 30 °C; stimulator of ATPase

T1 sequence (Q832K0 entry or part of it): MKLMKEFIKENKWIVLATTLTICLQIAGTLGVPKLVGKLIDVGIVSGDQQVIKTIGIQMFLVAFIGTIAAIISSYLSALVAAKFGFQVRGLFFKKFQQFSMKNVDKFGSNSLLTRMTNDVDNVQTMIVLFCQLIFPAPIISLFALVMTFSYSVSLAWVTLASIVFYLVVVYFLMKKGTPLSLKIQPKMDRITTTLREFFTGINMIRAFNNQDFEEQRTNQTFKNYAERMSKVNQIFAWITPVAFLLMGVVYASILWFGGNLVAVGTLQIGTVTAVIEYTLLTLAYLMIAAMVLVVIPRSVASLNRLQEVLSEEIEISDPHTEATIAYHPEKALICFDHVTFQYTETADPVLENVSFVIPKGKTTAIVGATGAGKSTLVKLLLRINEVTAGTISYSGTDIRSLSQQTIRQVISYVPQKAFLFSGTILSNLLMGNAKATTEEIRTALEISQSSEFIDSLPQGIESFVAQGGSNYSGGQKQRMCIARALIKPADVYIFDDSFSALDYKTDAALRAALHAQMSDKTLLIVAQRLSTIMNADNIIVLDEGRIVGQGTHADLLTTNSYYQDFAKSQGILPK
T1 sequence (Q832J9 entry or part of it): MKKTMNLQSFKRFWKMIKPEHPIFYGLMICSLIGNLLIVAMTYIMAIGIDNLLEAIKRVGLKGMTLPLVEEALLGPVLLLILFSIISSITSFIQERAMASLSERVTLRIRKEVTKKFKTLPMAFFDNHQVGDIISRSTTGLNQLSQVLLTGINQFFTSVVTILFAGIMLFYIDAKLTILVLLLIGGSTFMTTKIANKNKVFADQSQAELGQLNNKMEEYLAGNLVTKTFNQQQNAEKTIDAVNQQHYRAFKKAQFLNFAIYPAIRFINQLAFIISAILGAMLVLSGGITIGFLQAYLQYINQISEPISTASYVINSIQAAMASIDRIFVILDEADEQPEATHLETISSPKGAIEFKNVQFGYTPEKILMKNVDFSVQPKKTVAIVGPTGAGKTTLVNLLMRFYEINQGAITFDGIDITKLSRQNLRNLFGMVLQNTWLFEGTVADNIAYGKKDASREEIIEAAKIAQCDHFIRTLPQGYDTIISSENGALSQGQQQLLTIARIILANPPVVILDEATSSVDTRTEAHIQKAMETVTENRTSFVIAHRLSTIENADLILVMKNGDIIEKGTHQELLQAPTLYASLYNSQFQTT

In the case of `CC[n+]1c(-c2ccccc2)c2cc(N)ccc2c2ccc(N)cc21` [ethidium], the “ATPase stimulation in proteoliposomes; also ethidium efflux from L. lactis cells” value is reported as “Wild-type EfrEF efficiently expels ethidium from the cell”.

Source: publication PMC6529423, “The extracellular gate shapes the energy profile of an ABC exporter” (Nature Communications, 2019)
